Assay [1] concerns the target T1, human adenosine A1 receptor (Homo sapiens, UniProt P30542).
T1 construct: expressed in transfected cells; host or cells: HEK293 cells infected with BacMam (the same paragraph also labels the preparation CHO-hA1)
T1 sequence (P30542 1-326): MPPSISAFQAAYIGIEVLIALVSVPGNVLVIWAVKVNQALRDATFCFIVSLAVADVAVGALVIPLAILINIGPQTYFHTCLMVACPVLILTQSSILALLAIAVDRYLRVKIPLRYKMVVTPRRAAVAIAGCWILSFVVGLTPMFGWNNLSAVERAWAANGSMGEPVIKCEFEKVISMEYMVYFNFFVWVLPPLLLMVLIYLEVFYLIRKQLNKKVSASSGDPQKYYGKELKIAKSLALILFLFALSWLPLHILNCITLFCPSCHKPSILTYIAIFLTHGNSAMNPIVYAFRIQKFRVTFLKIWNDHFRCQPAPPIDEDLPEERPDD
In words: Inhibition binding assay, human adenosine A1 receptor membranes, [3H]DPCPX. Particulars: 1 nM [3H]DPCPX, 25° C., 1 h; IC50 converted to Ki with Cheng-Prusoff; read-out: A1 pKi (converted). In a few lines:
(§1)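 Membranes from BacMam-infected HEK293 cells (0.2 μg A2A, 1.4 μg A1) incubated 1 h at 25° C with test compound and 1 nM [3H]ZM241385 (A2A; 50 mM Tris-HCl pH 7.4) or [3H]DPCPX (A1; plus 100 mM NaCl, 10 mM MgCl2). Nonspecific: 1 μM CGS15943 or DPCPX. Filtration, scintillation; IC50 converted to Ki via Cheng-Prusoff.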

Assay [2] deals with T2, human adenosine A2A receptor (Homo sapiens, UniProt P29274).
T2 construct: expressed in transfected cells; host or cells: HEK293 cells infected with BacMam
T2 sequence (P29274 whole entry): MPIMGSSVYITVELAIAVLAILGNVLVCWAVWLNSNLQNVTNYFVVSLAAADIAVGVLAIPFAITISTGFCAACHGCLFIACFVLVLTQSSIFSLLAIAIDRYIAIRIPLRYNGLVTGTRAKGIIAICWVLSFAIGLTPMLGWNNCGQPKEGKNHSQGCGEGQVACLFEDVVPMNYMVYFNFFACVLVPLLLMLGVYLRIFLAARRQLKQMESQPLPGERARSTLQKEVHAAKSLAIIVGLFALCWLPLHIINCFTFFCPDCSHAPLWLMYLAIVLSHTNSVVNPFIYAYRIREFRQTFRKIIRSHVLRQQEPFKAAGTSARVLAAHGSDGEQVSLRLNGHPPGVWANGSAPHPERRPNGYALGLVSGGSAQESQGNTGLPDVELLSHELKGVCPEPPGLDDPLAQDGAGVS
Description: Inhibition binding assay, human adenosine A2A receptor membranes, [3H]ZM241385. As to conditions: 1 nM [3H]ZM241385, HEK293-hA2A membranes, 25° C., 1 h; IC50 converted to Ki with Cheng-Prusoff; read-out: A2A pKi (converted). A digest of the protocol: as §1

Assay [3] deals with T3, human CB1 receptor (Homo sapiens, UniProt P21554).
T3 construct: expressed in transfected cells; host or cells: CHO cells
T3 sequence (P21554 whole entry): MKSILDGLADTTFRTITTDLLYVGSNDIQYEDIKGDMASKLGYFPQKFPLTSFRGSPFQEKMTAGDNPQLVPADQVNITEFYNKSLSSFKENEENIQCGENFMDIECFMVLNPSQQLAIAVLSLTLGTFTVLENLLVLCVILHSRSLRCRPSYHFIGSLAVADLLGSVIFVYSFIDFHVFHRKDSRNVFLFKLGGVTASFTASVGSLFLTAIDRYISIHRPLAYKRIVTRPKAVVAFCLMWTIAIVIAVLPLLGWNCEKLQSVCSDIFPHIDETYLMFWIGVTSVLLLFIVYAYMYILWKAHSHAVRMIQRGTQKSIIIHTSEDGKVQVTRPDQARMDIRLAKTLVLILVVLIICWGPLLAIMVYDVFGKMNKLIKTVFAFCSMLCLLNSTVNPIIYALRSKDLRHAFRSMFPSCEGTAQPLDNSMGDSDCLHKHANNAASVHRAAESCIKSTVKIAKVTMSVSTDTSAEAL
In words: CB1 receptor antagonism, agonist-induced cAMP modulation (HTRF) in transfected CHO cells. Type of assay: cell-based. Particulars: read-out: Antag IC50. The procedure:
Receptor antagonism: Evaluation of the antagonist activity of compounds at the human CB1 receptor expressed in transfected CHO cells, determined by measuring their effects on agonist-induced cAMP modulation using the HTRF detection method.
Thereafter, the reference agonist CP 55940 and the adenylyl cyclase activator NKH 477 are added at respective final concentrations of 3 nM and 3 μM.
For basal control measurements, CP 55940 is omitted from the wells containing 3 μM AM 281.
Following 20 min incubation at 37° C., the cells are lysed and the fluorescence acceptor (D2-labeled cAMP) and fluorescence donor (anti-cAMP antibody labeled with europium cryptate) are added.
After 60 min at room temperature, the fluorescence transfer is measured at λex=337 nm and λem=620 and 665 nm using a microplate reader (Rubystar, BMG). The cAMP concentration is determined by dividing the signal measured at 665 nm by that measured at 620 nm (ratio).
The standard reference antagonist is AM 281, which is tested in each experiment at several concentrations to generate a concentration-response curve from which its IC50 value is calculated.

By IC50 is commonly meant the point on the concentration scale where inhibition reaches its midpoint. In the case of `Cc1cc(-c2c(-c3ccccc3)nc(N)n3c(=O)n(C[C@H]4CNCCO4)nc23)cc(C)n1` [Example 2-66, (R)-5-amino-8-(2,6-dimethylpyridin-4-yl)-2-(morpholin-2-ylmethyl)-7-phenyl-[1,2,4]triazolo[4,3-c]pyrimidin-3(2H)-one], the Ki in assay [1] was 1 µM; in assay [2], 0.00631 µM. The IC50 in assay [3] was over 100 µM.

Consider `CCOC(=O)N(C)CCn1nc2c(-c3cc(C)nc(C)c3)c(-c3ccccc3)nc(N)n2c1=O` [Example 2-13, ethyl N-[2-[5-amino-8-(2,6-dimethyl-4-pyridyl)-3-oxo-7-phenyl-[1,2,4]triazolo[4,3-c]pyrimidin-2-yl]ethyl]-N-methyl-carbamate], for which the Ki in assay [1] was 0.501 µM; in assay [2], 0.0158 µM. Besides, in assay [3], the 50% inhibitory concentration (IC50) is over 100 µM.

As to `Cc1cc(-c2c(-c3ccc(F)cc3)nc(N)n3c(=O)n(CCC(F)(F)F)nc23)cc(CO)n1` [Example 2-64, 5-amino-7-(4-fluorophenyl)-8-[2-(hydroxymethyl)-6-methyl-4-pyridyl]-2-(3,3,3-trifluoropropyl)-[1,2,4]triazolo[4,3-c]pyrimidin-3-one], the values for the Ki in assay [1] and in assay [2] were over 1.26 µM and 0.00158 µM, respectively. Moreover, the half-inhibitory concentration (IC50) in assay [3] amounted to 37.4 µM.

For the compound `CCN(C)c1nc(N)n2c(=O)n(CCC(F)(F)F)nc2c1-c1cc(C)nc(C)c1` [Example 3-4, 5-amino-8-(2,6-dimethyl-4-pyridyl)-7-[ethyl(methyl)amino]-2-(3,3,3-trifluoropropyl)-[1,2,4]triazolo[4,3-c]pyrimidin-3-one], the values for the Ki in assay [1] and in assay [2] were over 3.16 µM and 0.126 µM, respectively. Moreover, the half-inhibitory concentration (IC50) in assay [3] is over 100 µM.

As for `COc1nc(Cn2nc3c(-c4cc(C)nc(C)c4)c(-c4ccccc4)nc(N)n3c2=O)ccc1F` [Example 1-7, 5-amino-8-(2,6-dimethyl-4-pyridyl)-2-[(5-fluoro-6-methoxy-2-pyridyl)methyl]-7-phenyl-[1,2,4]triazolo[4,3-c]pyrimidin-3-one], the Ki in assay [1] was 0.398 µM; in assay [2], 0.00398 µM. Also, the IC50 in assay [3] was determined as 3.2 µM.

On to `Cc1cc(-c2c(-c3ccccc3)nc(N)n3c(=O)n(Cc4ccc(F)c(N)n4)nc23)cc(CO)n1` [Example 1-45, 5-amino-2-[(6-amino-5-fluoro-2-pyridyl)methyl]-8-[2-(hydroxymethyl)-6-methyl-4-pyridyl]-7-phenyl-[1,2,4]triazolo[4,3-c]pyrimidin-3-one], for which the Ki in assay [1] is 0.126 µM; in assay [2] it was 0.000794 µM. The half-maximal inhibitory concentration (IC50) in assay [3] was over 100 µM.

As for `Cc1cc(-c2c(-c3ccccc3)nc(N)n3c(=O)n(C[C@@H]4COCCN4C)nc23)cc(C)n1` [Example 2-80, 5-amino-8-(2,6-dimethyl-4-pyridyl)-2-[[(3R)-4-methylmorpholin-3-yl]methyl]-7-phenyl-[1,2,4]triazolo[4,3-c]pyrimidin-3-one], the Ki in assay [1] is 0.2 µM; in assay [2], 0.00794 µM. The IC50 in assay [3] was over 100 µM.

Consider `Cc1cc(-c2c(-c3ccccn3)nc(N)n3c(=O)n(CCC(F)(F)F)nc23)cc(C)n1` [Example 2-37, 5-amino-8-(2,6-dimethyl-4-pyridyl)-7-(2-pyridyl)-2-(3,3,3-trifluoropropyl)-[1,2,4]triazolo[4,3-c]pyrimidin-3-one], for which the Ki in assay [1] is over 3.16 µM; in assay [2] it was 0.0316 µM. In assay [3], the IC50 was over 100 µM.

As for `Cc1cc(-c2c(-c3ccccc3)nc(N)n3c(=O)n(CCC(F)(F)F)nc23)cc(C)[n+]1[O-]` [Example 2-56, 5-amino-8-(2,6-dimethyl-1-oxido-pyridin-1-ium-4-yl)-7-phenyl-2-(3,3,3-trifluoropropyl)-[1,2,4]triazolo[4,3-c]pyrimidin-3-one], the Ki was 0.316 µM in assay [1] and 0.0126 µM in assay [2]. The IC50 in assay [3] is over 100 µM.

In the case of `COCCn1nc2c(-c3cc(C)nc(C)c3)c(-c3ccccc3)nc(N)n2c1=O` [Example 2-10, 5-amino-8-(2,6-dimethyl-4-pyridyl)-2-(2-methoxyethyl)-7-phenyl-[1,2,4]triazolo[4,3-c]pyrimidin-3-one], the values for the Ki in assay [1] and in assay [2] were 0.251 µM and 0.01 µM, respectively. Besides, the IC50 in assay [3] is over 100 µM.

Values taken from patent publication US12528815B2, “5-amino-8-(4-pyridyl)-[1,2,4]triazolo[4,3-c]pyrimidin-3-one compounds for use against cancer” (Nxera Pharma UK Limited, priority 2020, dated 2026).
